Reference: PubChem BioAssay (NCI)
“And” between values parts separate entries of the source, which are not always exact repeats. Equal values may be shown once.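 Dose response: 5 concentrations. Exposure: 48 h. Format: 96-well plates. Endpoint: linear interpolation; highest concentration if not reached. GI50: concentration for 50% inhibition of growth. The concentration for full growth arrest is given as TGI.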

What was measured:
Assay in all cases: NCI anticancer screen, dose series, 48 h
[1] = system: 786-0 renal
[2] = system: A498 renal
[3] = system: A549 NSCLC
[4] = system: ACHN renal
[5] = system: BT-549 breast
[6] = system: CAKI-1 renal
[7] = system: CCRF-CEM leukemia
[8] = system: COLO 205 colon
[9] = system: DU-145 prostate
[10] = system: EKVX NSCLC
[11] = system: HCC-2998 colon
[12] = system: HCT-116 colon
[13] = system: HCT-15 colon
[14] = system: HL-60(TB) leukemia
[15] = system: HOP-62 NSCLC
[16] = system: HOP-92 NSCLC
[17] = system: HS 578T breast
[18] = system: HT29 colon
[19] = system: IGROV1 ovarian
[20] = system: K-562 leukemia
[21] = system: KM12 colon
[22] = system: LOX IMVI melanoma
[23] = system: M14 melanoma
[24] = system: MALME-3M melanoma
[25] = system: MCF7 breast
[26] = system: MDA-MB-231 breast
[27] = system: MDA-MB-435
[28] = system: MOLT-4 leukemia
[29] = system: NCI-H226 lung
[30] = system: NCI-H23 lung
[31] = system: NCI-H460 lung
[32] = system: NCI-H522 lung
[33] = system: NCI/ADR-RES ovarian
[34] = system: OVCAR-3 ovarian
[35] = system: OVCAR-4 ovarian
[36] = system: OVCAR-5 ovarian
[37] = system: OVCAR-8 ovarian
[38] = system: PC-3 prostate
[39] = system: RPMI-8226 leukemia
[40] = system: RXF 393 renal
[41] = system: SF-268 CNS
[42] = system: SF-295 CNS
[43] = system: SF-539 CNS
[44] = system: SK-MEL-2 melanoma
[45] = system: SK-MEL-28 melanoma
[46] = system: SK-MEL-5 melanoma
[47] = system: SK-OV-3 ovarian
[48] = system: SN12C renal
[49] = system: SNB-19 CNS
[50] = system: SNB-75 CNS
[51] = system: SR leukemia
[52] = system: SW-620 colon
[53] = system: T-47D breast
[54] = system: TK-10 renal
[55] = system: U251 CNS
[56] = system: UACC-257 melanoma
[57] = system: UACC-62 melanoma
[58] = system: UO-31 renal

NS(=O)(=O)c1ccc(N=Cc2c(O)[nH]c3ccc4ncsc4c23)cc1
GI50 [1]: 1020 nM and 3670 nM
TGI [1]: > 25000 nM and 18800 nM
GI50 [2]: 3690 nM and 6710 nM
TGI [2]: 9950 nM and 14700 nM
GI50 [3]: 5020 nM and 9110 nM
TGI [3]: > 25000 nM
GI50 [4]: 2200 nM and 5310 nM
TGI [4]: > 25000 nM
GI50 [5]: 693 nM and 2340 nM
TGI [5]: 2060 nM and 9040 nM
GI50 [6]: 5850 nM and 6520 nM
TGI [6]: > 25000 nM
GI50 [7]: 793 nM and 699 nM
TGI [7]: > 25000 nM
GI50 [8]: 1360 nM and 3840 nM
TGI [8]: 5030 nM and 9190 nM
GI50 [9]: 394 nM and 3030 nM
TGI [9]: > 25000 nM
GI50 [10]: 7910 nM and 8520 nM
TGI [10]: > 25000 nM
GI50 [11]: 751 nM and 1410 nM
TGI [11]: 3870 nM and 7050 nM
GI50 [12]: 845 nM and 1780 nM
TGI [12]: > 25000 nM
GI50 [13]: 7160 nM and 7130 nM
TGI [13]: > 25000 nM and 24500 nM
GI50 [14]: 1570 nM and 1930 nM
TGI [14]: 4100 nM and 4790 nM
GI50 [15]: 887 nM and 3490 nM
TGI [15]: 4170 nM and 15100 nM
GI50 [16]: 1720 nM
TGI [16]: > 7330 nM
GI50 [17]: 783 nM and 1040 nM
TGI [17]: > 7170 nM
GI50 [18]: 3500 nM and 8160 nM
TGI [18]: > 25000 nM
GI50 [19]: 6530 nM and 8830 nM
TGI [19]: > 25000 nM
GI50 [20]: 1270 nM and 2190 nM
TGI [20]: > 25000 nM
GI50 [21]: 566 nM and 1970 nM
TGI [21]: 8580 nM and 18400 nM
GI50 [22]: 850 nM and 2130 nM
TGI [22]: > 25000 nM
GI50 [23]: 2080 nM and 4140 nM
TGI [23]: 6990 nM and 9390 nM
GI50 [24]: 1440 nM and 2270 nM
TGI [24]: 10700 nM and > 19000 nM
GI50 [25]: 755 nM and 1770 nM
TGI [25]: > 24000 nM
GI50 [26]: 1060 nM and 5660 nM
TGI [26]: > 25000 nM
GI50 [27]: 2440 nM and 3760 nM
TGI [27]: > 19500 nM and 18400 nM
GI50 [28]: 476 nM and 886 nM
TGI [28]: 1570 nM and 4260 nM
GI50 [29]: 931 nM and 2940 nM
TGI [29]: 6260 nM and 15500 nM
GI50 [30]: 1110 nM and 3980 nM
TGI [30]: 7240 nM and 15700 nM
GI50 [31]: 764 nM and 5920 nM
TGI [31]: > 25000 nM
GI50 [32]: 508 nM and 532 nM
TGI [32]: 1580 nM and 1880 nM
GI50 [33]: 3500 nM and 5420 nM
TGI [33]: > 25000 nM
GI50 [34]: 189 nM and 756 nM
TGI [34]: > 6360 nM and 3420 nM
GI50 [35]: 821 nM and 1870 nM
TGI [35]: 2920 nM and 16100 nM
GI50 [36]: 2910 nM and 7560 nM
TGI [36]: > 25000 nM
GI50 [37]: 750 nM and 1730 nM
TGI [37]: > 25000 nM
GI50 [38]: 3100 nM and 2080 nM
TGI [38]: > 22900 nM
GI50 [39]: 5600 nM and 7170 nM
TGI [39]: > 21200 nM
GI50 [40]: 856 nM and 2120 nM
TGI [40]: 2470 nM and 7850 nM
GI50 [41]: 678 nM and 792 nM
TGI [41]: 2280 nM and 2720 nM
GI50 [42]: 4020 nM and 7280 nM
TGI [42]: > 23200 nM
GI50 [43]: 626 nM and 1080 nM
TGI [43]: 2000 nM and 4910 nM
GI50 [44]: 644 nM and 1150 nM
TGI [44]: 1360 nM and 3070 nM
GI50 [45]: 858 nM and 2490 nM
TGI [45]: 2550 nM and 10900 nM
GI50 [46]: 1040 nM and 2740 nM
TGI [46]: > 10500 nM and 15300 nM
GI50 [47]: 3840 nM and 9750 nM
TGI [47]: > 25000 nM
GI50 [48]: 982 nM and 3210 nM
TGI [48]: > 25000 nM
GI50 [49]: 885 nM and 2160 nM
TGI [49]: > 25000 nM
GI50 [50]: 857 nM and 3640 nM
TGI [50]: 2610 nM and 10000 nM
GI50 [51]: 213 nM and 518 nM
TGI [51]: > 5710 nM and 2110 nM
GI50 [52]: 891 nM and 1800 nM
TGI [52]: > 21900 nM
GI50 [53]: 781 nM and 2360 nM
TGI [53]: 2160 nM and > 20000 nM
GI50 [54]: 4200 nM and 7650 nM
TGI [54]: 17100 nM and 19100 nM
GI50 [55]: 715 nM and 1630 nM
TGI [55]: > 8070 nM
GI50 [56]: 3110 nM and 6090 nM
TGI [56]: 19000 nM and 16600 nM
GI50 [57]: 1050 nM and 3670 nM
TGI [57]: 4710 nM and 9090 nM
GI50 [58]: 4510 nM and 6200 nM
TGI [58]: > 21300 nM

O=C(Nc1cccc(-n2ccc3c(NC(=O)c4ccccc4)nccc32)c1)Nc1ccc(Cl)c(C(F)(F)F)c1
GI50 [1]: 589 nM
TGI [1]: > 100000 nM
GI50 [2]: 210 nM
TGI [2]: 1350 nM
GI50 [3]: 485 nM
TGI [3]: > 100000 nM
GI50 [4]: 670 nM
TGI [4]: 8480 nM
GI50 [5]: 697 nM
TGI [5]: 10400 nM
GI50 [6]: 718 nM
TGI [6]: 9380 nM
GI50 [7]: 332 nM
TGI [7]: > 100000 nM
GI50 [8]: 273 nM
TGI [8]: 737 nM
GI50 [9]: 338 nM
TGI [9]: 2280 nM
GI50 [10]: 633 nM
TGI [10]: > 100000 nM
GI50 [11]: 413 nM
TGI [11]: 15200 nM
GI50 [12]: 372 nM
TGI [12]: 13700 nM
GI50 [13]: 339 nM
TGI [13]: 14500 nM
GI50 [14]: 332 nM
GI50 [15]: 736 nM
TGI [15]: > 44600 nM
GI50 [16]: 860 nM
TGI [16]: 5740 nM
GI50 [17]: 283 nM
TGI [17]: 3250 nM
GI50 [18]: 327 nM
TGI [18]: 1400 nM
GI50 [19]: 662 nM
TGI [19]: > 100000 nM
GI50 [20]: 386 nM
TGI [20]: > 100000 nM
GI50 [21]: 343 nM
TGI [21]: 2680 nM
GI50 [22]: 649 nM
TGI [22]: 31600 nM
GI50 [23]: 315 nM
TGI [23]: 1260 nM
GI50 [24]: 1070 nM
TGI [24]: 47500 nM
GI50 [25]: 373 nM
TGI [25]: > 30700 nM
GI50 [26]: 420 nM
TGI [26]: 14200 nM
GI50 [27]: 227 nM
TGI [27]: 605 nM
GI50 [28]: 885 nM
TGI [28]: > 100000 nM
GI50 [29]: 865 nM
TGI [29]: > 28500 nM
GI50 [30]: 593 nM
TGI [30]: 5210 nM
GI50 [31]: 337 nM
TGI [31]: 18300 nM
GI50 [32]: 211 nM
TGI [32]: 642 nM
GI50 [33]: 252 nM
TGI [33]: 667 nM
GI50 [34]: 240 nM
TGI [34]: 554 nM
GI50 [35]: 971 nM
TGI [35]: > 100000 nM
GI50 [36]: 482 nM
TGI [36]: > 100000 nM
GI50 [37]: 431 nM
TGI [37]: > 39600 nM
GI50 [38]: 432 nM
TGI [38]: > 36100 nM
GI50 [39]: 424 nM
TGI [39]: 7020 nM
GI50 [40]: 224 nM
TGI [40]: 693 nM
GI50 [41]: 696 nM
TGI [41]: > 40000 nM
GI50 [42]: 294 nM
TGI [42]: 1340 nM
GI50 [43]: 308 nM
TGI [43]: 3980 nM
GI50 [44]: 358 nM
TGI [44]: 2620 nM
GI50 [45]: 651 nM
TGI [45]: > 92000 nM
GI50 [46]: 317 nM
TGI [46]: 1480 nM
GI50 [47]: 346 nM
TGI [47]: 20600 nM
GI50 [48]: 820 nM
TGI [48]: > 100000 nM
GI50 [49]: 494 nM
TGI [49]: > 100000 nM
GI50 [50]: 240 nM
TGI [50]: 769 nM
GI50 [51]: 367 nM
TGI [51]: > 23300 nM
GI50 [52]: 395 nM
TGI [52]: > 100000 nM
GI50 [53]: 2880 nM
TGI [53]: > 100000 nM
GI50 [54]: 1190 nM
TGI [54]: 14600 nM
GI50 [55]: 495 nM
TGI [55]: 17700 nM
GI50 [56]: 1870 nM
TGI [56]: 20900 nM
GI50 [57]: 490 nM
TGI [57]: 20000 nM
GI50 [58]: 1350 nM
TGI [58]: > 100000 nM
